The values below come from PMC4912613, “A broad analysis of resistance development in the malaria parasite” (Nature Communications, 2016).

Assay [1] has as its system P. falciparum. Put plainly: Rate of killing (parasite viability) assay. The class given is cell-based, Plasmodium falciparum. The following applies: profile compared with chloroquine, pyrimethamine, atovaquone; 48 h treatment. In short, it runs like this: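 Parasites exposed to compound for 48 h, then washed and given fresh labelled erythrocytes; invasion used as viability surrogate. Double-stained erythrocytes (RBC plus parasite DNA label) counted to give percent survival; time-course profiles benchmarked against chloroquine, pyrimethamine and atovaquone.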

Assay [2] deals with DHODH (E182D, parent 3D7). Kind of assay: Cross-resistance EC50 assay, DHODH. The class given is cell-based. The following applies: Plasmodium falciparum, SYBR green 72 hour assay, synchronized parasites, 384-well format. An excerpt:
(§1) To evaluate potential overlapping activity against known antimalarial drug targets, we performed dose-response studies with each compound against our assembled set of drug-resistant lines and their corresponding parents, in an asexual blood stage proliferation assay (Table 1). Comparisons were made to the drug-sensitive strain 3D7 when a parent was unavailable (TM90C2A, W2 and Dd2). As laboratories conducted EC50 assays with different strains and protocols, all comparisons were made between assays from the same laboratory and under the same assay conditions. Compounds displaying >5-fold EC50 shifts relative to the parent or sensitive strain were flagged as having potentially non-novel targets. Average fold shifts per strain ranged from 0.82 to 2.34, with a median of 1.23 indicating there was not common resistance to any one resistant clone. No resistance patterns were observed when classifying the compounds based on chemical structure, but this was not surprising given the diversity of compounds chosen. On the other hand, given that these confirmed compounds were derived from larger unconfirmed hit lists to which some filtration criteria may have been applied (for example, elimination of obvious dihydrofolate reductase inhibitors[32]), some[10][11][12][13] pre-existing bias may exist in the set. […]
(§2) Alternatively, a SYBR Green-based proliferation approach was used for the 72-h assay, as previously described. Briefly, a culture of either synchronized or asynchronous parasitized RBCs (0.3% parasitemia and 4% haematocrit) in screening medium (identical to supplemented medium above except no serum was added) was exposed to serial drug dilutions. Plates were incubated at 37 °C and gassed with 93% N2, 4% CO2 and 3% O2 for 72 h. Following incubation, 10 × SYBR Green I (Invitrogen; supplied in 10,000 × concentration) in lysis buffer ([…], 5 mM EDTA, 0.16% Saponin wt per vol and 1.6% Triton X vol per vol) was added to the wells and the plates were incubated overnight at room temperature before plate reading. EC50 assays were repeated three times, taking the average EC50 value from each assay set, and removing any outliers using a single iteration of Grubbs' test, eliminating values with z-scores above the critical z-value (α=0.05). The raw EC50 values for synchronized parasites assayed in a 384-well format are listed in Supplementary Data 4. The raw EC50 values for asynchronous parasites assayed in a 96 or 1536-well format are listed in Supplementary Data 5.
(§3) EC50 values for each strain were compared with those of the corresponding parent strain to determine fold-shift changes and identify resistance. To minimize the cause variance between assays, all comparisons were conducted between strains assayed under identical conditions. A one-way ANOVA followed by a Dunnet's post-test was conducted in GraphPad Prism to identify significant changes between the parent and resistant strain.

Assay [3] concerns ProRS (prolyl t-RNA synthetase L482H, parent Dd2). Put plainly: Cross-resistance EC50 assay, ProRS. The class given is cell-based. The following applies: Plasmodium falciparum, SYBR green 72 hour assay, synchronized parasites, 384-well format.
From the text: as §1, §2, §3

Assay [4] concerns NITD609-R2 (PfATP4 T418N and P990R, parent Dd2). Put plainly: Cross-resistance EC50 assay, NITD609-R2. The class given is cell-based. The following applies: Plasmodium falciparum, SYBR green 72 hour assay, asynchronized parasites, 96-well or 1536-well format.
From the text: as §1, §2, §3

With `O=C(Nc1ccsc1C(=O)NC1CCCCC1)c1ccc(F)cc1` [MMV665939], the “Killing Rate” value in assay [1] is on record as “ATQ (slow)”. For the same compound, the EC50 came to 771 nM in assay [2] (strain DHODH (3D7 parent)), 2380 nM in assay [3] (strain ProRS (Dd2 parent)) and 1.4 µM in assay [4].
For `Nc1ccc(-c2nc3cc(Cc4ccc5[nH]c(-c6ccc(N)cc6)nc5c4)ccc3[nH]2)cc1` [MMV665943] the same measures were “CQ (fast)”, 335 nM, 416 nM and 0.334 µM.
As to `COc1cc(C(=O)ON=C(N)Cc2cccc3ccccc23)cc(OC)c1OC` [MMV666687], the “Killing Rate” value in assay [1] is “CQ (fast)”. The EC50 in assay [2] (strain DHODH (3D7 parent)) was 1070 nM; in assay [3] (strain ProRS (Dd2 parent)) it was 326 nM; in assay [4], 0.535 µM.
The matching figures for `c1cc(-c2cnc3ccc(-c4ccc(N5CCOCC5)cc4)nn23)ccn1` [MMV668311]: “CQ (fast)”, 42 nM, 62 nM and 0.016 µM.
As to `COc1ccc2c3c([nH]c2c1)[C@H](CO)N(C(C)=O)CC31CCN(C(=O)Nc2ccccc2F)CC1` [MMV673482], in assay [1], the “Killing Rate” value is “PYR (moderate)”. The EC50 turned out to be 151 nM in assay [2] (3D7, DHODH strain); 94 nM in assay [3] (DD2, ProRS strain); 0.007 µM in assay [4].
For the compound `CN(C)CCCNCc1ccc(-c2ccc(Cl)c(Cl)c2)o1` [MMV673964], the “Killing Rate” value in assay [1] is reported as “CQ (fast)”. Also, the EC50 was 337 nM in assay [2] (3D7, DHODH strain); 315 nM in assay [3] (DD2, ProRS strain); 0.756 µM in assay [4].
